Measurements from article PMC9569649, “Naked and Decorated Nanoparticles Containing H2S-Releasing Doxorubicin: Preparation, Characterization and Assessment of Their Antitumoral Efficiency on Various Resistant Tumor Cells” (International Journal of Molecular Sciences, 2022).
Converted amounts (≈) assume the structure as drawn. Where a name gives a salt, the structure may show the parent alone. Read-outs that look alike come from different tables or passages of the source.

Key:
[1] = H2S-DOXO solubility in aqueous and organic solvent; assay type: physicochemical; details: room temperature (22–23 °C)
Experimental: The solubility of H2S-DOXO in water/acetonitrile (60/40 v/v ratio), methanol, 0.1 M pH 7.2 phosphate buffer, propylene glycol, and benzyl alcohol was determined as follows: an excess of H2S-DOXO was added to the organic or aqueous solution (1 mL); after 2-h equilibration at room temperature (22–23 °C) in a sealed vial under 600 rpm magnetic stirring, the suspension was centrifuged at 1397× g for 10 min, and the supernatant solution analyzed by RP-HPLC. The time needed to reach equilibrium solubility was determined by analyzing samples of the equilibrating solution at different time points to establish constant drug solubility.

[2] = H2S-DOXO stability in solvents (RP-HPLC); assay type: physicochemical; details: 30-day storage at 4 °C, vs t0 (100%)
Experimental: The chemical stability of H2S-DOXO in water/acetonitrile 60/40 v/v (mobile phase for HPLC analysis) and in methanol (solvent used for extraction from NPs to determining EE%) was tested by RP-HPLC after 30-day storage (t30). In Table 2, the stability was expressed as a percentage of residual concentration at t30 compared with the concentration at t0 (100%).
H2S-DOXO stability in water/acetonitrile (60/40 v/v ratio) and methanol was determined after 30-day (t30) storage at 4 °C following the drug concentration over time by RP-HPLC and comparing it with the concentration at t0, assuming it as 100%.

[3] = H2S-DOXO stability in the presence of microemulsion ingredients (RP-HPLC); assay type: physicochemical; details: water/acetonitrile 60/40 v/v; for Residual Concentration % t24: 24 h
Experimental: The chemical stability of H2S-DOXO in water/acetonitrile 60/40 v/v in the presence of µE ingredients, at the same ratio (w/w) used in the µE, was tested to select the suitable ingredients and to ensure the integrity of H2S-DOXO into the formulation. In Table 3, the stability at t0 and t24 h (t24) is expressed as percent of residual concentration in the presence of ingredients compared with that without ingredients at t0 (100%).
H2S-DOXO stability in water/acetonitrile (60/40 v/v ratio) in the presence of NaTC, NaGC, lecithin (phosphatidylcoline 95–98%), ST, CTAB, and Cremophor®RH60 was determined at t0 and after 24 h (t24) by RP-HPLC comparing the drug concentration with that in water/acetonitrile solution at t0, assuming it as 100%.

[4] = In vitro drug release (dialysis method); assay type: physicochemical; details: PBS pH 7.4, 37 °C, reference: 20% propylene glycol aqueous solution
Experimental: In vitro drug release. Release of H2S-DOXO from NPs was evaluated using the dialysis method. An aliquot of HA-NP-CTAB-H2S-DOXO was placed in a dialysis bag, and the dialysis bag, sealed at the ends, was immersed into 40 mL of phosphate buffered saline (PBS, pH 7.4) at 37 °C stirring at 100 rpm. At predetermined time intervals, 1 mL PBS was withdrawn and replaced with an equal volume of fresh PBS. Release was monitored for 5 h. The overtime released H2S-DOXO was analyzed by RP-HPLC. As a reference, a 20% propylene glycol aqueous solution of H2S-DOXO was used.

MCF-7 cells [5] = assay: Acute cytotoxicity (release of LDH); assay type: cell-based, human; details: MCF-7 (sensitive); 24 h, 5 µM
Experimental: (§1) In each of the following experimental sets, cells were incubated with specific dilutions of NPs to reach a final concentration of 5 μM H2S-DOXO, or with 5 μM DOXO or H2S-DOXO, as reference. Samples under study were: free DOXO, free H2S-DOXO, NP-H2S-DOXO 3% PVP, and HA-NP-CTAB-H2S-DOXO. Acute cytotoxicity. Culture medium from 2 × 10^6 cellule was centrifuged at 12,000 g for 15 min to pellet cell debris, while cells were washed with PBS twice, detached with trypsin/EDTA (0.05/0.02% v/v), rinsed in 0.2 mL of 82.3 mM triethanolamine phosphate-HCl (pH 7.6), and sonicated in ice with 10 s (100 W, Sonicator Labsonic); 5 μL of cell lysate was used to measure the intracellular protein content (BCA1 kit). The activity of extracellular lactate dehydrogenase (LDH), considered as an index of DOXO acute cell damage, was measured on 50 μL of cell culture medium, incubated at 37 °C with […]. The same assay was performed on 5 μL of cell lysate, to measure intracellular LDH. The kinetics of NADH oxidation was followed for 6 min measuring the absorbance at 340 nm with a Synergy HTX 96-well reader (Bio-Tek Instruments). The kinetics was linear overtime. Results were expressed as % extracellular LDH/total (extracellular+intracellular) LDH.

MDA-MB-231 cells [6] = assay: Acute cytotoxicity (release of LDH); assay type: cell-based, human; details: MDA-MB-231 (resistant); 24 h, 5 µM
Experimental: as §1

U-2OS cells [7] = assay: Acute cytotoxicity (release of LDH); assay type: cell-based, human; details: U-2OS (sensitive); 24 h, 5 µM
Experimental: as §1

U-2OS/DX580 cells [8] = assay: Acute cytotoxicity (release of LDH); assay type: cell-based, human; details: U-2OS/DX580 (resistant); 24 h, 5 µM
Experimental: as §1

JC cells [9] = assay: Acute cytotoxicity (release of LDH); assay type: cell-based, murine; details: JC (resistant); 24 h, 5 µM
Experimental: as §1

K7M2 cells [10] = assay: Acute cytotoxicity (release of LDH); assay type: cell-based, murine; details: K7M2 (resistant); 24 h, 5 µM
Experimental: as §1

MCF-7 cells [11] = assay: Cell viability (ATPLite); assay type: cell-based, human; details: MCF-7 (sensitive); 72 h, 5 µM
Experimental: (§2) In each of the following experimental sets, cells were incubated with specific dilutions of NPs to reach a final concentration of 5 μM H2S-DOXO, or with 5 μM DOXO or H2S-DOXO, as reference. Samples under study were: free DOXO, free H2S-DOXO, NP-H2S-DOXO 3% PVP, and HA-NP-CTAB-H2S-DOXO. Viability. 1 × 10^5 cells were seeded in 96 well plates and incubated for 72 h with DOXO, H2S-DOXO or the different NPs. Cell viability was evaluated using the ATPLite kit (PerkinElmer, Waltham, MA), as per manufacturer’s instructions, using a Synergy-HTX 96-well reader (Bio-Tek Instruments, Winooski, VT). The relative luminescence units (RLUs) of the untreated cells were considered 100%; the RLUs of the other experimental conditions were expressed as percentage versus untreated cells.

MDA-MB-231 cells [12] = assay: Cell viability (ATPLite); assay type: cell-based, human; details: MDA-MB-231 (resistant); 72 h, 5 µM
Experimental: as §2

U-2OS cells [13] = assay: Cell viability (ATPLite); assay type: cell-based, human; details: U-2OS (sensitive); 72 h, 5 µM
Experimental: as §2

U-2OS/DX580 cells [14] = assay: Cell viability (ATPLite); assay type: cell-based, human; details: U-2OS/DX580 (resistant); 72 h, 5 µM
Experimental: as §2

JC cells [15] = assay: Cell viability (ATPLite); assay type: cell-based, murine; details: JC (resistant); 72 h, 5 µM
Experimental: as §2

K7M2 cells [16] = assay: Cell viability (ATPLite); assay type: cell-based, murine; details: K7M2 (resistant); 72 h, 5 µM
Experimental: as §2

[17] = parameters: method as in PMID 23973213; details: human serum; pseudo-first-order kinetics; cited from earlier work
[18] = system: DU-145 prostate cancer cell line; parameters: method as in PMID 29607467; details: androgen-independent, DOXO-resistant DU-145; cited from earlier work
DU-145 cells = details: cited from earlier work
K7M2 tumor = system: K7M2 tumor; parameters: method as in PMID 31047947; details: cited from earlier work
[19] = 3-week injection, nude mice with subcutaneous DU-145 cells

## COc1cccc2c1C(=O)c1c(O)c3c(c(O)c1C2=O)C[C@@](O)(C(=O)COC(=O)c1ccc(-c2ssc(=S)c2-c2ccccc2)cc1)C[C@@H]3O[C@H]1C[C@H](N)[C@H](O)[C@H](C)O1 [H2S-DOXO, doxorubicin 14-[4-(4-phenyl-5-thioxo-5H-[1,2]dithiol-3-yl)]-benzoate]
[1]; benzyl alcohol
  Solubility: 1400 ± 700 µg/mL (≈ 1.64 mM)
[1]; methanol
  Solubility: 3820 ± 300 µg/mL (≈ 4.46 mM)
[1]; pH 7.2 phosphate buffer (0.1 M)
  Solubility: 30 ± 10 µg/mL (≈ 0.035 mM)
[1]; propylene glycol
  Solubility: 2830 ± 300 µg/mL (≈ 3.31 mM)
[1]; water/acetonitrile (60/40 v/v)
  Solubility: 3400 ± 500 µg/mL (≈ 3.97 mM)
[2]; methanol
  Residual Concentration % t30: 98.7%
[2]; water/acetonitrile (60/40 v/v)
  Residual Concentration % t30: 97.3%
[3]; in presence of CTAB
  Residual Concentration % t24: 100%
  Residual Concentration % t0: 100%
[3]; in presence of Cremophor RH60
  Residual Concentration % t24: 0%
  Residual Concentration % t0: 5%
[3]; in presence of Epikuron 200
  Residual Concentration % t24: 100%
  Residual Concentration % t0: 100%
[3]; in presence of NaGC
  Residual Concentration % t24: 98%
  Residual Concentration % t0: 100%
[3]; in presence of NaTC
  Residual Concentration % t24: 0%
  Residual Concentration % t0: 34%
[3]; in presence of ST
  Residual Concentration % t24: 14%
  Residual Concentration % t0: 44%
[4]
  H2S-DOXO release in 5 h: ~100%
MCF-7 cells [5]
  acute toxicity, release of LDH: comparable
MDA-MB-231 cells [6]
  acute toxicity, release of LDH: induced a significant release of LDH
U-2OS cells [7]
  acute toxicity, release of LDH: comparable
U-2OS/DX580 cells [8]
  acute toxicity, release of LDH: induced a significant release of LDH
JC cells [9]
  acute toxicity, release of LDH: induced a significant release of LDH
K7M2 cells [10]
  acute toxicity, release of LDH: induced a significant release of LDH
MCF-7 cells [11]
  subacute toxicity, reduced cell viability: did not offer any further advantage compared to DOXO
MDA-MB-231 cells [12]
  subacute toxicity, reduced cell viability: significantly more effective than DOXO
U-2OS cells [13]
  subacute toxicity, reduced cell viability: did not offer any further advantage compared to DOXO
U-2OS/DX580 cells [14]
  subacute toxicity, reduced cell viability: significantly more effective than DOXO
JC cells [15]
  subacute toxicity, reduced cell viability: significantly more effective than DOXO
K7M2 cells [16]
  subacute toxicity, reduced cell viability: significantly more effective than DOXO
[17]
  t1/2 of hydrolysis: 2.8 h
[18]
  cytotoxicity: high cytotoxicity
  intracellular accumulation: good intracellular accumulation
DU-145 cells; [19]
  percentage of apoptotic cells: an increase in the percentage of apoptotic cells
  reduction in tumor volume: 60%
DU-145 cells; nude mice with subcutaneous DU-145 cells
  tolerability / safety profile: well tolerated and had a better safety profile

## COc1cccc2c1C(=O)c1c(O)c3c(c(O)c1C2=O)C[C@@](O)(C(=O)CO)C[C@@H]3O[C@H]1C[C@H](N)[C@H](O)[C@H](C)O1 [DOXO, doxorubicin hydrochloride]
MCF-7 cells [5]
  acute toxicity, release of LDH: comparable
MDA-MB-231 cells [6]
  acute toxicity, release of LDH: devoid of any cytotoxic effects
U-2OS cells [7]
  acute toxicity, release of LDH: comparable
U-2OS/DX580 cells [8]
  acute toxicity, release of LDH: devoid of any cytotoxic effects
JC cells [9]
  acute toxicity, release of LDH: devoid of any cytotoxic effects
K7M2 cells [10]
  acute toxicity, release of LDH: devoid of any cytotoxic effects
MDA-MB-231 cells [12]
  subacute toxicity, reduced cell viability: ineffective
U-2OS/DX580 cells [14]
  subacute toxicity, reduced cell viability: ineffective
JC cells [15]
  subacute toxicity, reduced cell viability: ineffective
K7M2 cells [16]
  subacute toxicity, reduced cell viability: ineffective
K7M2 tumor; K7M2 tumors (CD44- and Pgp-overexpressing)
  tumor growth: neither DOXO nor Caelyx® reduced the growth of these tumors
K7M2 tumor; K7M2 tumors
  apoptosis / caspase-3 activation in the tumor: nor did they induce apoptosis in the tumor
DU-145 cells; mouse, in vivo, sc
  tolerability / safety profile: associated with weight loss and cardiotoxicity
